Reference: paper PMC7125926 (Antiviral Research, 2015)
Several values for one entry are separate records, joined by “and”; a condition that tells them apart may be missing. Identical values can stand only once. Entries after “also recorded” stand apart in the source; their conditions may differ. Counter-ions that a name gives are not always drawn. Like-named read-outs stand apart in the source and are kept apart here.

Assays:
[1] = MTT assay of drug toxicity in mouse lung slices; assay type: cell-based
[2] = system: IP-10; experiment: tissue or blood; assay type: cell-based, mouse
[3] = system: PR8 (H1N1) influenza virus; assay type: cell-based
[4] = system: influenza virus; assay type: in vivo, mice; details: Fig. S5
[5] = system: influenza A virus; details: ref An et al., 2014; cited from earlier work
[6] = system: influenza virus; details: mouse, cited from earlier work
[7] = Mus musculus, 48 h, read-out: IP-10-EC50: 50% effective concentration determined by ELISA of IP-10
[8] = read-out: IP-10-EC50: 50% effective concentration determined by ELISA of IP-10
[9] = read-out: NA-EC50: 50% effective concentration determined by NA activity assay

Row | Structure (SMILES) | CC50 at 48 h [1] [µM] | effect on IP-10 levels in lung slices (in words) [2] | effect on virus replication / NA activity in lung slices (in words) [3] | protection of mice from lethal doses of influenza virus infection (in words) [4] | antiviral activity in MDCK cells (in words) [5] | In vivo: the protection effect of mice from lethal influenza infection [6] | EC50 [2, 8] [µM] | also measured
1 | CC(C)OC(=O)C(C)(C)Oc1ccc(C(=O)c2ccc(Cl)cc2)cc1 [Fenofibrate] | > 200 | inhibited neither | inhibited neither | failed to protect mice | known antiviral activity | – | – | –
2 | CCN(CC)CCOC(=O)C(Cc1cccc2ccccc12)CC1CCCO1 (centres unmarked) [Nafronyl oxalate] | 122 | inhibited the inflammatory response | not showing any antiviral activity | – | known antiviral activity | – | – | EC50 [2, 7]: 22.1 µM
3 | Clc1ccccc1C(c1ccccc1)(c1ccccc1)n1ccnc1 [Clotrimazole] | 16.3 | inhibited neither | inhibited neither | failed to protect mice | known antiviral activity | – | – | –
4 | CCN(CC)CCOC(=O)C1(C2CCCCC2)CCCCC1 [Dicyclomine] | – | inhibited neither | – | – | – | – | – | –
5 | CC(C)=C1C/C=C(\C)CC/C=C(\C)CC1=O [Gemacrone] | – | – | efficiently inhibited virus replication | – | – | + | 17.6 | EC50 [3, 9]: 23.1 µM
6 | CCCCC/C=C/C=C1/C(=O)C=C[C@@H]1C/C=C\CCCC(=O)O [15d-PGJ2, 15-deoxy-Δ^12,14-prostaglandin J2] | – | dose dependently decreased IP-10 levels | neither inhibited virus replication | – | – | + | 0.2 | inhibition of virus replication ([6]; in vivo): does not inhibit virus replication; mice protected from death against lethal influenza infection ([6]; in vivo): 79%
7 | O=C(O[C@@H]1Cc2c(O)cc(O)cc2O[C@@H]1c1cc(O)c(O)c(O)c1)c1cc(O)c(O)c(O)c1 [EGCG] | – | dose dependently decrease | dose dependently decrease NA levels | – | – | + | 3.3 | EC50 [3, 9]: 50.1 µM
8 | CCCC(C(=O)OCCN(CC)CC)(c1ccccc1)c1ccccc1 [Proadifen] | 32.2 | inhibited neither | inhibited neither | failed to protect mice | known antiviral activity | – | – | –
9 | NC(=O)c1ncn([C@@H]2O[C@H](CO)[C@@H](O)[C@H]2O)n1 [Ribavirin, ribavirin] | > 200 | – | dose dependent inhibition; also recorded: efficiently inhibited virus replication | – | – | – | – | EC50 [2, 7]: 21.8 µM; EC50 ([2]; Mus musculus, 48 h, read-out: IP-10-EC50: 50% effective concentration determined by IP-10 inhibition): 21.8 µM; EC50 ([2]; read-out: IP-10-EC50: 50% effective concentration determined by IP-10 inhibition): 17.8 µM and 20.6 µM and 14.2 µM; EC50 ([3]; read-out: NA-EC50: 50% effective concentration determined by NA inhibition): 25.4 µM and 28.3 µM and 17.7 µM
10 | CN(C)CCCOc1nn(Cc2ccccc2)c2ccccc12 [Benzydamine] | 113 | inhibited neither | inhibited neither | failed to protect mice | known antiviral activity | – | – | –
11 | C[S+]([O-])c1ccc(-c2nc(-c3ccncc3)c(-c3ccc(F)cc3)[nH]2)cc1 (centres unmarked) [SB203580] | > 100 | dose dependently decreased IP-10 levels | neither inhibited virus replication | – | – | + | – | –
12 | N#CC(=C(/N)Sc1ccccc1N)/C(C#N)=C(/N)Sc1ccccc1N [U0126] | – | dose dependently decrease | dose dependent inhibition; also recorded: dose dependently decrease NA levels | – | – | + | 1.3 | EC50 [3, 9]: 12 µM
